Data from ChEMBL document CHEMBL1201862, “PubChem BioAssay data set” (2004).
The source made the active and inactive calls.

Legend:
[1] = A High Throughput Confirmatory Assay used to Identify Novel Compounds that Inhibit Mycobacterium Tuberculosis in the absence of Glycerol.; assay type: functional
[2] = viability of uninfected HEp-2 cells – cell-based, HTS, cytotoxicity control for RSV inhibitor project, dose response (AID 2410); assay type: functional; details: human respiratory syncytial virus
[3] = cells
[4] = biological target: Cytochrome P450 2D6 (Homo sapiens, UniProt P10635); assay: qHTS Assay for Inhibitors and Substrates of Cytochrome P450 2D6. [Related pubchem assays: 410 ]; assay type: ADME; details: read-out: Potency
Cytochrome P450 2D6, sequence (P10635 whole entry): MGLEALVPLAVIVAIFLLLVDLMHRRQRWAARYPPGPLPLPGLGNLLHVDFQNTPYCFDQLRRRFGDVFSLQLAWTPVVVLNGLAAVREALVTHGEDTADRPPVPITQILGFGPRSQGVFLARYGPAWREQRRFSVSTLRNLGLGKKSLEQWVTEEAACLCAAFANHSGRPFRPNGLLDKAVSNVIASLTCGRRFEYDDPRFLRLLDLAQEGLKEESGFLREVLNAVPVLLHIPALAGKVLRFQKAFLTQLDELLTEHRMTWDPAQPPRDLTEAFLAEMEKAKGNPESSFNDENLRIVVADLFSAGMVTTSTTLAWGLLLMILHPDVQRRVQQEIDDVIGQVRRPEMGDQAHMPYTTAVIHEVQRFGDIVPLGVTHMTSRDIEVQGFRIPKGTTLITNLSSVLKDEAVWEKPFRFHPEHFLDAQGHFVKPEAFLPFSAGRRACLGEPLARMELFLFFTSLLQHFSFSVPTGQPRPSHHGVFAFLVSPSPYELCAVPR

[5] = biological target: T1, Mannose-6-phosphate isomerase (Homo sapiens, UniProt P34949); assay: MPI enzyme activity inhibition – biochemical, fluorescence intensity, coupled assay, primary screen (AID 1209)
T1 sequence (P34949 whole entry): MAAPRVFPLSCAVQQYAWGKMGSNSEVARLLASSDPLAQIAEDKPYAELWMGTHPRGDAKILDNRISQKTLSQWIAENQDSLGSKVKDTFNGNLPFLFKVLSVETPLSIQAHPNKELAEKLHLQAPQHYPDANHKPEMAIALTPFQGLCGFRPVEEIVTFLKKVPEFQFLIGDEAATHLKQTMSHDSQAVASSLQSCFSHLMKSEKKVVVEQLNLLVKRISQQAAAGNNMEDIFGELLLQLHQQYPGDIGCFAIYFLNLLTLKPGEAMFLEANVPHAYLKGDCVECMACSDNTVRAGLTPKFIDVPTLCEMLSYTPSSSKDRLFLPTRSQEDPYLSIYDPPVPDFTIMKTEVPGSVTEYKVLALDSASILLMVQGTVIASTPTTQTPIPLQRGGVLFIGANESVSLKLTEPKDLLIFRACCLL

[6] = biological target: T1, Mannose-6-phosphate isomerase; assay: MPI inhibition at elevated mannose 6-phosphate – biochemical, fluorescence intensity, high mannose 6-phosphate, primary screen (AID 1220)
[7] = A cytotoxicity screen of small molecule inhibitors of the PhoP region in Salmonella typhi identified in the primary screen. [Related pubchem assays: 1850, 1864, 1985 ]; assay type: functional
[8] = biological target: T2, Neuropeptide Y receptor type 2 (Homo sapiens, UniProt P49146); assay: IC50 for human NPY-Y2 blockade – cell-based, counter-screen for NPY-Y1 antagonist project, dose response (AID 1278); assay type: functional
T2 sequence (P49146 whole entry): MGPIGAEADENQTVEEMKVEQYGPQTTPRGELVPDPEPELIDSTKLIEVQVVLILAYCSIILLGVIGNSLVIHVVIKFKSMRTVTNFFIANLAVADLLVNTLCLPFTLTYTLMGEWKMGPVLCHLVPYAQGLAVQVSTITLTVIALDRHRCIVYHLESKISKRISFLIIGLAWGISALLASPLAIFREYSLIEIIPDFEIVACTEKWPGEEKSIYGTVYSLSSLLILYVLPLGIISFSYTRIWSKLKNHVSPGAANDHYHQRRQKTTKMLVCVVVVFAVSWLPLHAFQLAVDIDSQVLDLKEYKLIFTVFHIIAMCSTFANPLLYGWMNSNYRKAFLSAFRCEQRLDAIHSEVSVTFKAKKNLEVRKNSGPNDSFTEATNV

[9] = biological target: T3, Neuropeptide Y receptor type 1 (Homo sapiens, UniProt P25929); assay: IC50 of human NPY-Y1 blockers – cell-based, dose response (AID 1277); assay type: functional
T3 sequence (P25929 whole entry): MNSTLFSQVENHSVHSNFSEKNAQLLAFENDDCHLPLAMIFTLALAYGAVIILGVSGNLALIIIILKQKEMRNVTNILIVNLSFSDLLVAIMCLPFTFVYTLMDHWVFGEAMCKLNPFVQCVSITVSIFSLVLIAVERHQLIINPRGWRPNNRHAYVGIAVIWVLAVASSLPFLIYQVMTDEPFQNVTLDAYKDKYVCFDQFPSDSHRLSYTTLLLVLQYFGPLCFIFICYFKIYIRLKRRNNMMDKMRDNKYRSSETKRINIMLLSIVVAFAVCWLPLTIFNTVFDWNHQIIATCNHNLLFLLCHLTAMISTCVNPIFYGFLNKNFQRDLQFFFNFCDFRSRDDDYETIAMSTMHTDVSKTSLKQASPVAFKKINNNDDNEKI

[10] = Luminescence Cell-Based Dose Response to Identify Activators of 5'UTR Stem-Loop Driven Prion Protein mRNA Translation in H4-C Neuroglioblastoma Cells. [Related pubchem assays: 1829 (Project Summary), 1814 (Primary HTS)]; assay type: functional
[11] = Luminescence Cell-Based Dose Confirmation HTS to Identify Activators of 5'UTR Stem-Loop Driven Alpha-Synuclein mRNA Translation in H4 Neuroglioblastoma Cells. [Related pubchem assays: 1829 (Project Summary), 1814 (Primary HTS)]; assay type: functional
[12] = Luminescence Cell-Based Dose Response HTS to Identify Activators of Luciferase Translation or Activity in H4 […] Cells. [Related pubchem assays: 1829 (Project Summary), 1814 (Primary HTS)]; assay type: functional
[13] = system: H4; assay: Luminescence Cell-Based Dose Response HTS to Identify Activators of 5'UTR Stem-Loop Driven Prion Protein mRNA Translation in H4 Neuroglioblastoma Cells. [Related pubchem assays: 1829 (Project Summary), 1814 (Primary HTS)]; assay type: functional; details: Homo sapiens
[14] = Luminescence Cell-Based Dose Response to Identify Activators of Luciferase Translation or Activity in H4-C Neuroglioblastoma Cells. [Related pubchem assays: 1829 (Project Summary), 1814 (Primary HTS)]; assay type: functional
[15] = Luminescence Cell-Based Dose Confirmation to Identify Activators of 5'UTR Stem-Loop Driven Alpha-Synuclein mRNA Translation in H4 Neuroglioblastoma Cells. [Related pubchem assays: 1829 (Project Summary), 1814 (Primary HTS)]; assay type: functional
[16] = system: HeLa; assay: ATP-based viability loss in HeLa cells – cell-based, CellTiter-Glo luminescence, cherry-pick samples, cytotoxicity control for MITF activator project, dose response (AID 540259); assay type: functional; details: Homo sapiens
[17] = biological target: T4, Protein skinhead-1 (Caenorhabditis elegans, UniProt P34707); assay type: functional
T4 sequence (P34707 whole entry): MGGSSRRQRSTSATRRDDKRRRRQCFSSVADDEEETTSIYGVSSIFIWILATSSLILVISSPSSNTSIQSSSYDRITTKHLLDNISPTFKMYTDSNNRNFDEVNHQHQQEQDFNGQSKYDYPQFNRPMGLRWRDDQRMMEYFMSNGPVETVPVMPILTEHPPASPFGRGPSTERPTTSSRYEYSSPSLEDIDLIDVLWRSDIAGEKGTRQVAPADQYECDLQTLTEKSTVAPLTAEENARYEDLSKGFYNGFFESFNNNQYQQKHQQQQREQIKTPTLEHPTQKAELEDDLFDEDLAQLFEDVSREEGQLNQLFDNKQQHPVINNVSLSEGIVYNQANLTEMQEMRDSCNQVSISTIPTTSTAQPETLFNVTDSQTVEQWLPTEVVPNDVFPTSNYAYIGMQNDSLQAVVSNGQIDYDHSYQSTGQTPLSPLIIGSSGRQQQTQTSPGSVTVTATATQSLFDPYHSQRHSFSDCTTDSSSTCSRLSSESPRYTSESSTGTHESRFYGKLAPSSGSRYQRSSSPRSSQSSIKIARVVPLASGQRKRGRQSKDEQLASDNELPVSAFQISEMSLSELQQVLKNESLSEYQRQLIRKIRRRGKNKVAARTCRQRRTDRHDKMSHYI

[18] = biological target: T5, Cytochrome P450 2C9 (Homo sapiens, UniProt P11712)
T5 sequence (P11712 whole entry): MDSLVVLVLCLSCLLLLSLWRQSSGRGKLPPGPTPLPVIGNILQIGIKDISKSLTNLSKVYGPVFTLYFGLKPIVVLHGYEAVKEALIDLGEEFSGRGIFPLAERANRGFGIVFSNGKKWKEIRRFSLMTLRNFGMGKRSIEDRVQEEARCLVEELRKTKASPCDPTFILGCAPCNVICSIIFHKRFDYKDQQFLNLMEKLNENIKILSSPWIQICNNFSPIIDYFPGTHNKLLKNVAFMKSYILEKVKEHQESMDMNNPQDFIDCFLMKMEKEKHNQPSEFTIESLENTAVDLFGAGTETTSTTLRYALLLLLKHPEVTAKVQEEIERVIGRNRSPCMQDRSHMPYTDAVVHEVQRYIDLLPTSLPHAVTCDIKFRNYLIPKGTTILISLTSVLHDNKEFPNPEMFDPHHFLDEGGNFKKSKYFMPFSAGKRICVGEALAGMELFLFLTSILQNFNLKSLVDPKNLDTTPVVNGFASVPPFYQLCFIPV

[19] = cells; assay type: functional, cell-based
[20] = system: BJ; assay: cells; assay type: functional, cell-based; details: Homo sapiens
[21] = Luminescence-based dose response cell-based high throughput screening assay for cytotoxic compounds using the IEC-6 intestinal epithelial cell line. [Related pubchem assays: 1858 (Summary AID.), 1825 (Counterscreen.), 1907 (Confirmation screen.)]; assay type: functional
[22] = cells; assay type: functional, cell-based; remark: listed apart in the source
[23] = DRD fibroblast viability loss – cell-based, non-viral oncogenic, luminescence, dose response (AID 1934); assay type: functional; details: Homo sapiens
[24] = cells; assay type: functional, cell-based; remark: listed apart in the source
[25] = biological target: T6, Nuclear receptor subfamily 0 group B member 1 (Homo sapiens, UniProt P51843); assay type: functional, cell-based;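 note: HEK293T cells transfected with SF-1 and DAX-1 plus StAR promoter luciferase reporter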
T6 sequence (P51843 whole entry): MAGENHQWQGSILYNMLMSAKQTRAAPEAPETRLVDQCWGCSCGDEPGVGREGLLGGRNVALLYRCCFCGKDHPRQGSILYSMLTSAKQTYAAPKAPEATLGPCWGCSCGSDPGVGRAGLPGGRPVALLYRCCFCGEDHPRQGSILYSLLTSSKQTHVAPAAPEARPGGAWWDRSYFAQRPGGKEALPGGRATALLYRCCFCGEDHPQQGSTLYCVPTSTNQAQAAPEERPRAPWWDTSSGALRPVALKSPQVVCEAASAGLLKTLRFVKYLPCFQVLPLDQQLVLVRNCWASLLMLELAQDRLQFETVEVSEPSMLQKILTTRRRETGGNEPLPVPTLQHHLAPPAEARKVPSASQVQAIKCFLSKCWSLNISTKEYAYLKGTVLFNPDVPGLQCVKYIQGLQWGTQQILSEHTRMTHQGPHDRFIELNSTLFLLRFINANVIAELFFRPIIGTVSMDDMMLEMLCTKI

[26] = biological target: T7, Voltage-gated N-type calcium channel alpha-1B subunit/Amyloid beta A4 precursor protein-binding family A member 1 (Homo sapiens, UniProt Q00975+Q02410); assay type: protein assay
T7 sequence (Q00975 whole entry): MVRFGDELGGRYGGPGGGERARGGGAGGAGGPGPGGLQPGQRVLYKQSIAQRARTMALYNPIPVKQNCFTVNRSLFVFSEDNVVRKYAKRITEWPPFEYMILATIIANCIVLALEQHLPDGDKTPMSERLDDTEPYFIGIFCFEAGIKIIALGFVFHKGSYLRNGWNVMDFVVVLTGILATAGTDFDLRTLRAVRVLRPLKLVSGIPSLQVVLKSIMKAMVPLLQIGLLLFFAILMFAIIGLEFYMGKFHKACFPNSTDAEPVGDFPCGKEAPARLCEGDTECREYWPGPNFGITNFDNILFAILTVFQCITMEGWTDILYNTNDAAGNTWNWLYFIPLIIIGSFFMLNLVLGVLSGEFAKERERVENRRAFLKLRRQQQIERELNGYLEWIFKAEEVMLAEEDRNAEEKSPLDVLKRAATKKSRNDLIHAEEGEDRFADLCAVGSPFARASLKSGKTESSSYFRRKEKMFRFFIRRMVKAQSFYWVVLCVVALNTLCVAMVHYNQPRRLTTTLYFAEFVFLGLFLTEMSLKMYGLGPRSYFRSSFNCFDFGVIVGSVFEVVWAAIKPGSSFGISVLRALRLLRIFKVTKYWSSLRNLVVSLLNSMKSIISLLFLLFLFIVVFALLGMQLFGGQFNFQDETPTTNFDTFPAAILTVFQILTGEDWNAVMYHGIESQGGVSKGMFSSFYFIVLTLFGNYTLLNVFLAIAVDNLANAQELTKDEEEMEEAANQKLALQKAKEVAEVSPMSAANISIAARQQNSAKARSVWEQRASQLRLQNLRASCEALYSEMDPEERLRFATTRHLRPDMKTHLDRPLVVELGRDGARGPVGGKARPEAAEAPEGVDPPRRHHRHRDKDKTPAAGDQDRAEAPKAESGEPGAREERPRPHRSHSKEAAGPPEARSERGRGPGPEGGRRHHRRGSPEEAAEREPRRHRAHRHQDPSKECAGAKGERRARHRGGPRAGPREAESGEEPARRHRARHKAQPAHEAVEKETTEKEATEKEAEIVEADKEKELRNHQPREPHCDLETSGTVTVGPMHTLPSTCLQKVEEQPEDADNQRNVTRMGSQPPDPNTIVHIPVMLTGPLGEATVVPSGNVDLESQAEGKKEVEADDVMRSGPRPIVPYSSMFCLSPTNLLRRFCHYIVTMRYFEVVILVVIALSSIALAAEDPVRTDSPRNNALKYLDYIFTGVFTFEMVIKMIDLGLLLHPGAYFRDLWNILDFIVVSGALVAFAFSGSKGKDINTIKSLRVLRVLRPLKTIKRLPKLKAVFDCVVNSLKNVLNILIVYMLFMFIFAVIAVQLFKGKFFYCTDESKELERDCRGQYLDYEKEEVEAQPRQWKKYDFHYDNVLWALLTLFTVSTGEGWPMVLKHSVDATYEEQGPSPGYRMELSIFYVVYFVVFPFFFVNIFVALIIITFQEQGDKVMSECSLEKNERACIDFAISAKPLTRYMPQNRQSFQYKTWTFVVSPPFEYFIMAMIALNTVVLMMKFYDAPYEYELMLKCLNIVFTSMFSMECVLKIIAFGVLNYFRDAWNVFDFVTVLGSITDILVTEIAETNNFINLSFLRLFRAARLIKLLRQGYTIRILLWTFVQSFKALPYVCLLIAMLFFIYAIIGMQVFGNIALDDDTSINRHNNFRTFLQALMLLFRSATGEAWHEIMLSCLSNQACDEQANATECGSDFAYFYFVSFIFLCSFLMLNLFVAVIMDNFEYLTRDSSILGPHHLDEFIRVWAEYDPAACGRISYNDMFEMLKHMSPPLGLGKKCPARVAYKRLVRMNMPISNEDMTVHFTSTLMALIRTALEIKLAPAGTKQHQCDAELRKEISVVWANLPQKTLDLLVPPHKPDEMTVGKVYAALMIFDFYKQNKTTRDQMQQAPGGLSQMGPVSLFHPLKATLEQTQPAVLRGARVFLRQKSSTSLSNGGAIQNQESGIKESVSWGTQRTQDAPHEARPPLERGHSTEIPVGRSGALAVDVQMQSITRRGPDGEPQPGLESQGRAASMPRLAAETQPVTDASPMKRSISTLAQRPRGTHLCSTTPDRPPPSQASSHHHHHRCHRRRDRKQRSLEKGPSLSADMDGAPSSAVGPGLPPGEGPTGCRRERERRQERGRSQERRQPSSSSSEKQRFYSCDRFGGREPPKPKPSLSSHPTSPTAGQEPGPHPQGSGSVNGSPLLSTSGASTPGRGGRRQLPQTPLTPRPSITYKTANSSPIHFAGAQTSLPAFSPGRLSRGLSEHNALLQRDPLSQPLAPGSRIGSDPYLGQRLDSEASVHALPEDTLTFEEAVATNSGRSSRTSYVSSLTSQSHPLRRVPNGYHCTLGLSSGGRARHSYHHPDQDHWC
T7 sequence (Q02410 whole entry): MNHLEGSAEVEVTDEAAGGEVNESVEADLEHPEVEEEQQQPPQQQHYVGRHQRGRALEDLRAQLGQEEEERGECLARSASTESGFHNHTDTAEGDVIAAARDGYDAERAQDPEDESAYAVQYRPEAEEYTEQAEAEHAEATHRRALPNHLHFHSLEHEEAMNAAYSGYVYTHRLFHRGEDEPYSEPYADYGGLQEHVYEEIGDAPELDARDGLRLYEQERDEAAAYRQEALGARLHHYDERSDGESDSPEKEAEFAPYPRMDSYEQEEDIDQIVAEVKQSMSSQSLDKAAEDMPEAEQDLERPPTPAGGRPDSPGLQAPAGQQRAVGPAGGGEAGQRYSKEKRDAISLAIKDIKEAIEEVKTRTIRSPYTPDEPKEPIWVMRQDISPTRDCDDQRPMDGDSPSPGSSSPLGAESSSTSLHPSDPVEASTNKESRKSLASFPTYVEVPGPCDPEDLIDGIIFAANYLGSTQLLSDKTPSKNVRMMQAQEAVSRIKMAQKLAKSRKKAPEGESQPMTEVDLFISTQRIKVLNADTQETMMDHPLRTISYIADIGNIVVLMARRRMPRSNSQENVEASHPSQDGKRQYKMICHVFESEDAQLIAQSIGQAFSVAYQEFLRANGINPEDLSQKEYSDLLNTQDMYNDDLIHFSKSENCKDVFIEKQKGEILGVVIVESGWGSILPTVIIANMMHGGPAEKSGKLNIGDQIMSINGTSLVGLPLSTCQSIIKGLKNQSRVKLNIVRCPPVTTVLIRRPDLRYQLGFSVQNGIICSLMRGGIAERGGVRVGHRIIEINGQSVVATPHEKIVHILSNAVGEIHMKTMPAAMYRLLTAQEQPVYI

[27] = biological target: T7, Voltage-gated N-type calcium channel alpha-1B subunit/Amyloid beta A4 precursor protein-binding family A member 1; assay type: protein assay; remark: listed apart in the source
[28] = biological target: Glucose-6-phosphate 1-dehydrogenase (Homo sapiens, UniProt P11413); assay: inhibition of Homo sapiens G6PD, dose series – biochemical, fluorescence, selectivity assay for P. falciparum G6PD inhibitor project, dose response (AID 504792); assay type: functional
Glucose-6-phosphate 1-dehydrogenase, sequence (P11413 whole entry): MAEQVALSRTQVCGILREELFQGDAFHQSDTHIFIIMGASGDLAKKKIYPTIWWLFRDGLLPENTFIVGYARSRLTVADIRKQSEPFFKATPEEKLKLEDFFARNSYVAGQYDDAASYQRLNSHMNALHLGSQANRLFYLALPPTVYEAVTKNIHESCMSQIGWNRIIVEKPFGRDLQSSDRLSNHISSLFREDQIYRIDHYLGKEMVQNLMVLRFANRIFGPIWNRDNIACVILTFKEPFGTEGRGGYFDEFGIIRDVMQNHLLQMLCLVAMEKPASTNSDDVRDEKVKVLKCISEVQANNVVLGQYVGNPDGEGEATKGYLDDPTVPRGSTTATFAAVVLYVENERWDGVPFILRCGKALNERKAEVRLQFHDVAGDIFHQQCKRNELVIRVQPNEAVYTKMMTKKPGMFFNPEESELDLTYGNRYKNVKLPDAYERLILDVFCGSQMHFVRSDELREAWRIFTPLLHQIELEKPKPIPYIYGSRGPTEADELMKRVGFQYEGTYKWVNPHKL

[29] = biological target: Eukaryotic translation initiation factor 4E (Mus musculus, UniProt P63073); assay: blockers of eIF4G binding by eIF4E – biochemical, TR-FRET, dose response (AID 855); assay type: functional;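 note: potency for disrupting eIF4E binding to eIF4GI seen as loss of FRET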
Eukaryotic translation initiation factor 4E, sequence (P63073 whole entry): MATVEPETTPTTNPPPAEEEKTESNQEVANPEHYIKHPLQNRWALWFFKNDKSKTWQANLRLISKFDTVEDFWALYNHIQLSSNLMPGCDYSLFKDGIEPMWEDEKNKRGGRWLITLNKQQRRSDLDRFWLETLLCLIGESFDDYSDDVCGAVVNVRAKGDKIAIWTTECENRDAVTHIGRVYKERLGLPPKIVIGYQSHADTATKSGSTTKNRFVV

[30] = cells; assay type: functional
[31] = A Cell Based Secondary Assay To Explore Cytotoxicity of Compounds that Sensitize Mycobacterium Tuberculosis to Beta-Lactam Antibiotics.; assay type: functional
[32] = system: HEK293; assay: EBV LMP1 TES2 canonical NF-kB signalling blockers – cell-based, HEK293, luciferase, cherry-pick, dose response (AID 588343); assay type: functional; details: Homo sapiens
[33] = biological target: T5, Cytochrome P450 2C9; details: Potency

CC(C)(C)OC(=O)NN=C(S)NC1CCCCC1
IC50 [1]: > 100 µM (active)

CCOc1ccc2nc(NC(=O)C3(C)CC3(Br)Br)sc2c1 (stereo not drawn)
CC50 [2]: 19.4 µM (active) | IC50 [3]: 47.8 µM (active)

O=C(O)[C@@H]1[C@@H]2C[C@H]3c4[nH]c5ccccc5c4CCN3C[C@@H]2CC[C@@H]1O
AC50 [4]: 31.6 µM (inconclusive)

Cc1cc(C)n(-c2nnc(N3CCN(c4ccc(F)cc4)CC3)nn2)n1
IC50 [5]: > 50 µM (not active) | IC50 [6]: > 50 µM (not active)

COc1ccccc1C(=O)Nc1nnc(-c2ccc(F)cc2)o1
EC50 [7]: > 50 µM (active)

CCOC(=O)c1c(CSc2ccccc2)n(C)c2ccc(O)c(CN3CCOCC3)c12
IC50 [8]: > 35 µM (not active) | IC50 [9]: 1.94 µM (active)

COc1ccc(N(C(=O)C2CCCCC2)S(=O)(=O)c2cccc3cccnc23)cc1
IC50 [8]: > 35 µM (not active) | IC50 [9]: > 35 µM (not active)

C#CCOCCOCCOCCNc1nc(N2CCN(C(=O)CCCCCCCCCCNC(=O)[C@@H]([C@H](C)O)n3cc(C)nn3)CC2)nc(N2CCN(C(=O)CCCCCCCCCCNC(=O)[C@@H]([C@H](C)O)n3cc(C)nn3)CC2)n1
IC50 [3]: 15.1 µM (active)

O=C(Nc1ccccc1)O/N=C/c1ccc(F)cc1
EC50 [10]: 0.477 µM (active) | EC50 [11]: < 0.1 µM (active) | EC50 [12]: < 0.1 µM (active) | EC50 [13]: 8.27 µM (active) | EC50 [14]: 0.372 µM (active) | EC50 [15]: 0.321 µM (active) | AC50 [16]: 54.2 µM (active) | IC50 [17]: > 100 µM (inactive)

CC1=NN(c2ccccc2)C(=O)/C1=C\c1c(C)[nH]n(-c2ccccc2)c1=O
IC50 [1]: > 100 µM (active) | AC50 [18]: 2.51 µM (inconclusive)

O=C(N/N=C/C(Br)=C\c1ccccc1)c1[nH]nc2c1CCC2
EC50 [19]: > 350 µM (not active) | EC50 [20]: 0.223 µM (inconclusive) | IC50 [21]: 0.183 µM (active) | EC50 [22]: 17.8 µM (active) | EC50 [23]: 0.3 µM (inconclusive) | IC50 [24]: > 67.5 µM (inactive) | IC50 [25]: > 0.834 µM (active)

COc1cc(/N=c2\ssnc2Cl)cc(OC)c1
IC50 [26]: 0.738 µM (active) | IC50 [5]: 19.6 µM (active) | IC50 [27]: 6.42 µM (active) | IC50 [28]: > 80 µM (inactive) | IC50 [29]: 22.6 µM (active) | IC50 [30]: 39.2 µM (active)

COc1cccc(/C=N/NC(=O)CSCC(=O)Nc2ccccc2)c1O
EC50 [19]: 12.7 µM (active) | CC50 [31]: 21.3 µM (active) | EC50 [22]: > 350 µM (not active) | AC50 [32]: 25.4 µM (active)

O=C(N/N=C/c1cccnc1)c1cccc(Cl)c1
EC50 [7]: > 50 µM (active)

Cc1ccc(OCC(=O)N/N=C/c2cn(C)c3ccccc23)cc1
CC50 [31]: > 40 µM (active)

O=c1cc(-c2ccccc2)oc2c1ccc1ccccc12 [ALPHA-NAPHTHOFLAVONE]
AC50 [4]: 12.6 µM (inconclusive) | AC50 [33]: 7.94 µM (inconclusive)
